These results are taken from ChEMBL document CHEMBL5223137, “Mapping Ligand Interactions of Bromodomains BRD4 and ATAD2 with FragLites and PepLites─Halogenated Probes of Druglike and Peptide-like Molecular Interactions” (J Med Chem, 2022).

The target of this experiment is T1, ATPase family AAA domain-containing protein 2 (Homo sapiens, UniProt Q6PL18).
T1 sequence (Q6PL18 whole entry): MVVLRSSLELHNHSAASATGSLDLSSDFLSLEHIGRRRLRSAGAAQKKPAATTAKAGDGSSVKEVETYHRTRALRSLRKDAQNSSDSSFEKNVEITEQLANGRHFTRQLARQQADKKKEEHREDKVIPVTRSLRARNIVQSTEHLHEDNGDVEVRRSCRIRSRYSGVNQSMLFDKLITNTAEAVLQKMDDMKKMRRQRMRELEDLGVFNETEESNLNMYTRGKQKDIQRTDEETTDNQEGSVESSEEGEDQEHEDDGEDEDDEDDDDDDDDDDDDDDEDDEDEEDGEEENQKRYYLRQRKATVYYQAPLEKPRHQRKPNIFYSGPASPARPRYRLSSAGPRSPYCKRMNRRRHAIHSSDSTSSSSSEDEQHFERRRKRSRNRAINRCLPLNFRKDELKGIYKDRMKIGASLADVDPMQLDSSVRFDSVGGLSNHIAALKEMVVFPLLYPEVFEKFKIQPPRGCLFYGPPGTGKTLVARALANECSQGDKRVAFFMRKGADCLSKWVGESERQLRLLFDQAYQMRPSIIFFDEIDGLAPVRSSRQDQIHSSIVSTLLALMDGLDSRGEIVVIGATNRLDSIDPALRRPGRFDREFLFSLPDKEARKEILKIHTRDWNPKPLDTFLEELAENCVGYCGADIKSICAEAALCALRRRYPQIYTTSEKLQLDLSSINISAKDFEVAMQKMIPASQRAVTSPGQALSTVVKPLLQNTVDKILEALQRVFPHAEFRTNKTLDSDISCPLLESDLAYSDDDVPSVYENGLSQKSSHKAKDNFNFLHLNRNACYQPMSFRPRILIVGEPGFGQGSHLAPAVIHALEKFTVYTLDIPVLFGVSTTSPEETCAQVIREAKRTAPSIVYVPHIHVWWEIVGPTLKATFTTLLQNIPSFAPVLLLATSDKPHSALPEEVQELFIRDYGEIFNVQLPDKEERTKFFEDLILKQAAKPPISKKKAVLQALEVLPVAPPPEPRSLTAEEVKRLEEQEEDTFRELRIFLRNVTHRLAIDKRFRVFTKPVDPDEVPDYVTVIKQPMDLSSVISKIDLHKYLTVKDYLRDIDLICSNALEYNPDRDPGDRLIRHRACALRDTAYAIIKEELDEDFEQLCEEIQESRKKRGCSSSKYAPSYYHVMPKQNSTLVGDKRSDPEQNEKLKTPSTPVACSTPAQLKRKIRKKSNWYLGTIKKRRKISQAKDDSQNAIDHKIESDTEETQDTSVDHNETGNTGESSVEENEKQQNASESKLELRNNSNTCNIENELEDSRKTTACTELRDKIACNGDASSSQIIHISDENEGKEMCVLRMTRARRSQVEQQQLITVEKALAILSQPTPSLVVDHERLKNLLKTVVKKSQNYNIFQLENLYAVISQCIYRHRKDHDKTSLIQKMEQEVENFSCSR
Put plainly: Inhibition of His-6 tagged recombinant human ATAD2 (981 to 1108 residues) expressed in Escherichia coli BL21 (DE3) rosetta cells by HTRF assay. On the technique in general: Time-resolved FRET reads energy transfer from a long-lived donor to a nearby acceptor.
In general, IC50 refers to the concentration at which inhibition is half-maximal. Turning to `Cn1cc(Br)cc(N)c1=O`, the IC50 is 377 µM.

Regarding `Cn1ccc(NCc2ccccn2)c(N)c1=O`, the IC50 was found to be 55 µM.

Take `Cn1cccc(NCC2CCNCC2)c1=O`: the half-maximal inhibitory concentration (IC50) stood at 543 µM.

In the case of `CN1CCNc2c1ccn(C)c2=O`, the half-maximal inhibitory concentration (IC50) came out at 822 µM.
